Reference: patent US9637516B2, “Betulinic acid proline derivatives as HIV inhibitors” (HETERO RESEARCH FOUNDATION, priority 2012, dated 2017)

What was measured:
HIV-1 strain 92HT599 = experiment: Antiviral activity: p24 estimation in MT2 cells infected with HIV-1 strain 92HT599; type: cell-based; conditions: for inhibition at 0.1 µM: Human immunodeficiency virus 1, 100 nM; for inhibition at 0.1 µM / inhibition at 1 µM: HIV-1 92HT599, p24, ~96 hours; for inhibition at 1 µM: Human immunodeficiency virus 1, 1000 nM; for IC50: Human immunodeficiency virus 1, HIV-1 92HT599, p24
Method: MT2 cells were infected with HIV-1 strain 92HT599 (10 TCID 50/30000 cells). The infected cells were plated at the concentration of ˜30 000 cells per well in 96 well plate. Test compound was added to the micro plate in defined format with the final concentration of DMSO (vehicle) is not more than 1%. Incubation was carried out in CO2 incubator for ˜96 hours for viral infection. At the end of incubation period an aliquot from each well was taken for p24 estimation. The quantitation of p24 is an index for antiviral activity of the compound. Percent inhibition was calculated with reference to control values (vehicle controls). p-24 estimation was carried out using Advance biosciences kit as per the procedure detailed by supplier.

in vitro = type: cell-based; conditions: human, Cytotoxicity % viability
Method: (§1) For cyto-toxicity assay the same amount of MT2 cells as in antiviral assay without virus was added to the 96 well plates. The cyto-toxicity was measured using MTT reagent in parallel with p24 estimation. The percent viability is calculated in comparison with vehicle control.

MT2 cells = experiment: in vitro; type: cell-based; conditions: human, 1 µM
Method: as §1

[1] = Single dose oral pharmacokinetic study; type: in vivo, mice; conditions: mouse, plasma
Method: The test item was administered through oral route to animals (rat/mice) at 30 mg/kg dose in a suitable vehicle at 10 ml/kg dose volume. Blood samples (˜50 uL at each time point) were collected from retro-orbital plexus using K3 EDTA as anticoagulant in eppendorf tubes at defined time intervals under light ether anesthesia. The samples were centrifuged at 3500×g to separate plasma and stored at −80° C. until analysis.
Sample analysis: Test samples were analyzed using LC-MS-MS after developing fit-for-purpose method for each of test compound.

[2] = Mice oral PK @30 mg/kg (Table 3)
[3] = Mice oral PK @30 mg/kg (Table 4)

Structure (SMILES) | inhibition at 0.1 µM (HIV-1 strain 92HT599) [%] | inhibition at 1 µM (HIV-1 strain 92HT599) [%] | IC50 (HIV-1 strain 92HT599) [nM] | viability at 1 µM (in vitro) [%] | Cytotoxicity % viability (MT2 cells) [%] | AUC(0-t) [1, 2] [µg·h/mL] | Cmax [1, 2] [ng/mL] | Tmax [1, 2] [h] | AUC(0-inf) [1, 3] [µg·h/mL] | AUC(0-t) [1, 3] [µg·h/mL] | Cmax [1, 3] [ng/mL] | half-life [1, 3] [h]
C=C(C)[C@@H]1CC[C@]2(C(=O)N3CCC[C@H]3c3ncc(-c4ccccc4)[nH]3)CC[C@]3(C)[C@H](CC[C@@H]4[C@@]5(C)CC[C@H](OC(=O)[C@H]6C[C@@H](C(=O)O)C6(C)C)C(C)(C)[C@@H]5CC[C@]43C)[C@@H]12 [Compound 14] | 94 | 100 | 15.3 | 82 | 86 | 171 | 11000 | 5 | – | – | – | –
C=C(C)[C@@H]1CC[C@]2(C(=O)N3CCC[C@H]3c3ncc(-c4ccccc4)[nH]3)CC[C@]3(C)[C@H](CC[C@@H]4[C@@]5(C)CC[C@H](OC(=O)CC(C)(C)CC(=O)O)C(C)(C)[C@@H]5CC[C@]43C)[C@@H]12 [Compound 9, 3,3-dimethyl-5-oxo-5-((1R,3aS,5aR,5bR,7aR,9S,11aR,11bR,13aR,13bR)-5a,5b,8,8,11a-pentamethyl-3a-((S)-2-(5-phenyl-1H-imidazol-2-yl)pyrrolidine-1-carbonyl)-1-(prop-1-en-2-yl)icosahydro-1H-cyclopenta[a]chrysen-9-yloxy)pentanoic acid] | 81 | 98 | – | 100 | 99 | 58 | 5460 | 6 | – | – | – | –
CC(C)(CC(=O)O[C@H]1CC[C@]2(C)[C@H]3CC[C@@H]4[C@H]5[C@H](C6(C)CC6)CC[C@]5(C(=O)N5CCC[C@H]5c5ncc(-c6ccccc6)[nH]5)CC[C@@]4(C)[C@]3(C)CC[C@H]2C1(C)C)C(=O)O [Compound 12, 2,2-dimethyl-4-oxo-4-((1R,3aS,5aR,5bR,7aR,9S,11aR,11bR,13aR,13bR)-5a,5b,8,8,11a-pentamethyl-1-(1-methylcyclopropyl)-3a-((S)-2-(5-phenyl-1H-imidazol-2-yl)pyrrolidine-1-carbonyl)icosahydro-1H-cyclopenta[a]chrysen-9-yloxy)butanoic acid] | 100 | 100 | 4.59 | 85 | – | 69.3 | 7260 | 3 | – | – | – | –
CC(C)(CC(=O)O[C@H]1CC[C@]2(C)[C@H]3CC[C@@H]4[C@H]5[C@H](C6(C)CC6)CC[C@]5(C(=O)N5CCC[C@@H]5c5nc(-c6ccccc6)no5)CC[C@@]4(C)[C@]3(C)CC[C@H]2C1(C)C)C(=O)O [Compound 5, 2,2-dimethyl-4-oxo-4-((1R,3aS,5aR,5bR,7aR,9S,11aR,11bR,13aR,13bR)-5a,5b,8,8,11a-pentamethyl-1-(1-methylcyclopropyl)-3a-((R)-2-(3-phenyl-1,2,4-oxadiazol-5-yl)pyrrolidine-1-carbonyl)icosahydro-1H-cyclopenta[a]chrysen-9-yloxy)butanoic acid] | 64 | 99 | – | 91 | 100 | – | – | – | – | – | – | –
C=C(C)[C@@H]1CC[C@]2(C(=O)N3CCC[C@H]3c3ncc(-c4ccc(F)cc4)[nH]3)CC[C@]3(C)[C@H](CC[C@@H]4[C@@]5(C)CC[C@H](OC(=O)C6CC(C(=O)O)C6(C)C)C(C)(C)[C@@H]5CC[C@]43C)[C@@H]12 (stereo partly drawn) [Compound 35, 3-((((1R,3aS,5aR,5bR,7aR,9S,11aR,11bR,13aR,13bR)-3a-((S)-2-(5-(4-fluorophenyl)-1H-imidazol-2-yl)pyrrolidine-1-carbonyl)-5a,5b,8,8,11a-pentamethyl-1-(prop-1-en-2-yl)icosahydro-1H-cyclopenta[a]chrysen-9-yl)oxy)carbonyl)-2,2-dimethylcyclobutane-1-carboxylic acid] | – | – | 74 | – | – | – | – | – | 655 | 410 | 16000 | 34.2
C=C(C)[C@@H]1CC[C@]2(C(=O)N3CCC[C@@H]3c3nc(-c4cccnc4)no3)CC[C@]3(C)[C@H](CC[C@@H]4[C@@]5(C)CC[C@H](OC(=O)CC(C)(C)C(=O)O)C(C)(C)[C@@H]5CC[C@]43C)[C@@H]12 [Compound 3, 2,2-dimethyl-4-oxo-4-((1R,3aS,5aR,5bR,7aR,9S,11aR,11bR,13aR,13bR)-5a,5b,8,8,11a-pentamethyl-1-(prop-1-en-2-yl)-3a-((R)-2-(3-(pyridin-3-yl)-1,2,4-oxadiazol-5-yl)pyrrolidine-1-carbonyl)icosahydro-1H-cyclopenta[a]chrysen-9-yloxy)butanoic acid] | 100 | 100 | 3.34 | 97 | 100 | 66.5 | 7430 | 1.75 | – | – | – | –
C=C(C)[C@@H]1CC[C@]2(C(=O)N3CCC[C@H]3c3ncc(-c4ccccc4)[nH]3)CC[C@]3(C)[C@H](CC[C@@H]4[C@@]5(C)CC[C@H](OC(=O)[C@@H]6C[C@H](C(=O)O)C6(C)C)C(C)(C)[C@@H]5CC[C@]43C)[C@@H]12 [Compound 27, (1S,3R)-2,2-dimethyl-3-((((1R,3aS,5aR,5bR,7aR,9S,11aR,11bR,13aR,13bR)-5a,5b,8,8,11a-pentamethyl-3a-((S)-2-(5-phenyl-1H-imidazol-2-yl)pyrrolidine-1-carbonyl)-1-(prop-1-en-2-yl)icosahydro-1H-cyclopenta[a]chrysen-9-yl)oxy)carbonyl)cyclobutane-1-carboxylic acid] | – | – | 11 | – | – | – | – | – | 535 | 231 | 10100 | 38.1
C=C(C)[C@@H]1CC[C@]2(C(=O)N3CCC[C@@H]3c3nc(-c4ccccc4)no3)CC[C@]3(C)[C@H](CC[C@@H]4[C@@]5(C)CC[C@H](OC(=O)CC(C)(C)CC(=O)O)C(C)(C)[C@@H]5CC[C@]43C)[C@@H]12 [Compound 2, 3,3-dimethyl-5-oxo-5-((1R,3aS,5aR,5bR,7aR,9S,11aR,11bR,13aR,13bR)-5a,5b,8,8,11a-pentamethyl-3a-((R)-2-(3-phenyl-1,2,4-oxadiazol-5-yl)pyrrolidine-1-carbonyl)-1-(prop-1-en-2-yl)icosahydro-1H-cyclopenta[a]chrysen-9-yloxy)pentanoic acid] | 30 | 90 | – | 90 | 92 | – | – | – | – | – | – | –
C=C(C)[C@@H]1CC[C@]2(C(=O)N3CCCC3c3ncc(-c4ccc(OC)cc4)[nH]3)CC[C@]3(C)[C@H](CC[C@@H]4[C@@]5(C)CC[C@H](OC(=O)[C@H]6C[C@@H](C(=O)O)C6(C)C)C(C)(C)[C@@H]5CC[C@]43C)[C@@H]12 (stereo partly shown) [Compound 15] | 98 | 97 | – | – | – | – | – | – | 446 | 286 | 11400 | 30.9
C=C(C)[C@@H]1CC[C@]2(C(=O)N3CCC[C@@H]3c3nc(-c4cccnc4)no3)CC[C@]3(C)[C@H](CC[C@@H]4[C@@]5(C)CC[C@H](OC(=O)CC(C)(C)CC(=O)O)C(C)(C)[C@@H]5CC[C@]43C)[C@@H]12 [Compound 4, 3,3-dimethyl-5-oxo-5-((1R,3aS,5aR,5bR,7aR,9S,11aR,11bR,13aR,13bR)-5a,5b,8,8,11a-pentamethyl-1-(prop-1-en-2-yl)-3a-((R)-2-(3-(pyridin-3-yl)-1,2,4-oxadiazol-5-yl)pyrrolidine-1-carbonyl)icosahydro-1H-cyclopenta[a]chrysen-9-yloxy)pentanoic acid] | 84 | 96 | 8.64 | – | – | 36.9 | 4830 | 2.5 | – | – | – | –
CC(C)(CC(=O)O)CC(=O)O[C@H]1CC[C@]2(C)[C@H]3CC[C@@H]4[C@H]5[C@H](C6(C)CC6)CC[C@]5(C(=O)N5CCCC5c5ncc(-c6cccnc6)[nH]5)CC[C@@]4(C)[C@]3(C)CC[C@H]2C1(C)C (stereo partly shown) [Compound 31] | – | – | 1.62 | – | – | – | – | – | 145 | 136 | 9300 | 10.9
CC(C)(CC(=O)O[C@H]1CC[C@]2(C)[C@H]3CC[C@@H]4[C@H]5[C@H](C6(C)CC6)CC[C@]5(C(=O)N5CCC[C@H]5c5ncc(-c6ccc(F)cc6)[nH]5)CC[C@@]4(C)[C@]3(C)CC[C@H]2C1(C)C)C(=O)O [Compound 33, 4-(((1R,3aS,5aR,5bR,7aR,9S,11aR,11bR,13aR,13bR)-3a-((S)-2-(5-(4-fluorophenyl)-1H-imidazol-2-yl)pyrrolidine-1-carbonyl)-5a,5b,8,8,11a-pentamethyl-1-(1-methylcyclopropyl)icosahydro-1H-cyclopenta[a]chrysen-9-yl)oxy)-2,2-dimethyl-4-oxobutanoic acid] | – | – | 9.5 | – | – | – | – | – | 152 | 88.7 | 4400 | 32.1
